A short description of the data set: photoluminescence quantum yield (fraction); solvent given as SMILES.

For the molecule `CN1C(=O)/C(=C/c2ccncc2)N=C1/C=C/c1ccncc1`, the photoluminescence quantum yield runs as follows: (in C1COCCO1) 0.048; (in CC#N) 0.033; (in CCO) 0.028; (in CCOC(C)=O) 0.041; (in O) 0.013.

With `COCCN1C(=O)/C(=C/c2cccc(N(C)C)c2)N=C1C`, the photoluminescence quantum yield (in C1CCOC1) worked out at 0.13, the photoluminescence quantum yield (in CC#N) was determined as 0.04 and the photoluminescence quantum yield (in CCCCCC) is 0.45.

`CC1=C2CCc3ccccc3C2=[N+]2C1=C(c1ccc(I)cc1)c1c(C)c3c(n1[B-]2(F)F)-c1ccccc1CC3`: the photoluminescence quantum yield (in ClC(Cl)Cl) stood at 0.72.

Consider `c1ccc(C2=C(c3ccccc3)c3cccc4c3c(cc3nc5ccccc5nc34)O2)cc1`, for which the photoluminescence quantum yield (in ClCCl) was 0.54.

As for `CCCCCCCC(=O)Oc1ccc2c3cccc4c(OC(=O)CCCCCCC)ccc(c5cccc1c52)c43`, the photoluminescence quantum yield worked out at 0.97 (in C1CCOC1); 0.97 (in Cc1ccccc1); 0.06 (in ClC(Cl)(Cl)Cl); 0.91 (in ClC(Cl)Cl); 0.8 (in ClCCl); 0.93 (in c1ccncc1).

`CC1=[N+]2C(=C(c3ccccc3)c3ccc(/C=C/c4ccc(C(=C(c5ccccc5)c5ccccc5)c5ccccc5)cc4)n3[B-]2(F)F)C=C1` registered a photoluminescence quantum yield (in C1CCOC1) of 0.746.

Consider `COc1cc(/C=C/c2ccccc2)cc(OC)c1`, for which the photoluminescence quantum yield (in C1CCCCC1) came to 0.18; the photoluminescence quantum yield (in CC#N) turned out to be 0.32; the photoluminescence quantum yield (in CC(C)O) is 0.27; the photoluminescence quantum yield (in CCCCOCCCC) worked out at 0.26; the photoluminescence quantum yield (in CCOC(C)=O) is 0.29; the photoluminescence quantum yield (in CCOCC) was 0.27.

On to `COc1cc(OC)cc(C2=C3C(C)=C(I)C(C)=[N+]3[B-](F)(F)n3c(/C=C/c4ccsc4)c(I)c(C)c32)c1`, for which the photoluminescence quantum yield is, setting by setting: (in C1CCOC1) 0.3; (in CS(C)=O) 0.15; (in ClCCl) 0.4.

Take `O=C([O-])c1ccc(C(=O)[O-])c(C2=c3cc4c5c(c3Oc3c2cc2c6c3CCCN6CCC2)CCC[N+]=5CCC4)c1`: the photoluminescence quantum yield is 0.83 (in CCO) and 0.64 (in O).

As to `O=C1[C@@H]2[C@H](C(=O)N1c1cccc3cc4ccccc4cc13)[C@@H]1C=C[C@H]2C1`, the photoluminescence quantum yield (in ClC(Cl)Cl) is 0.26.

In turn, `CCOC(=O)C1=C(C(=O)OCC)C2(c3ccccc3-c3ccccc32)[C@@H](c2ccccc2)C=C2c3cc(OC)c(OC)cc3CCN21` registered a photoluminescence quantum yield (in ClCCl) of 0.00154.

Turning to `NS(=O)(=O)c1ccc(N2N=C(c3ccc(O)cc3)CC2c2ccc(F)cc2)cc1` (configuration not stated), the photoluminescence quantum yield by setting is: (in C1CCOC1) 0.88; (in C1COCCO1) 0.78; (in CC#N) 0.75; (in CC(C)O) 0.52; (in CCO) 0.47; (in CCOC(C)=O) 0.87. In addition, the photoluminescence quantum yield is, setting by setting: (in CN(C)C=O) 0.89; (in CO) 0.36; (in CS(C)=O) 0.93; (in O) 0.57.

`C[C@@]12SC(Cl)=CC1=c1nc(-c3ccccc3)[nH]c1=C1C=C(Cl)S[C@]12C` came in with a photoluminescence quantum yield (in CC#N) of 0.014.

`CC(C)(C)c1ccc(N(c2ccc(S(=O)(=O)c3ccc(S(=O)(=O)c4ccc(N(c5ccc(C(C)(C)C)cc5)c5ccccc5C(C)(C)C)cc4)cc3)cc2)c2ccccc2C(C)(C)C)cc1` had a photoluminescence quantum yield (in Cc1ccccc1) of 0.8.

With `CCC1(CC)c2ccccc2-c2ccc(C#Cc3cc(C#Cc4ccc5c(c4)C(CC)(CC)c4ccccc4-5)c4ccc5c(C#Cc6ccc7c(c6)C(CC)(CC)c6ccccc6-7)cc(C#Cc6ccc7c(c6)C(CC)(CC)c6ccccc6-7)c6ccc3c4c65)cc21`, the photoluminescence quantum yield (in Cc1ccccc1) was found to be 0.64.

With `CCCCCCc1ccc(-n2c3[n+](c4c5ccccc5c5ccccc5c42)[B-](C)(C)c2ccc4ccccc4c2-3)cc1`, the photoluminescence quantum yield runs as follows: (in C1CCOC1) 0.11; (in CC#N) 0.07; (in Cc1ccccc1) 0.16; (in ClCCl) 0.08.

For the origin of these results see the Deep4Chem optical property database.
